Data reported in publication PMC8847371 (Nature Communications, 2022).
Where “and” joins values, the source holds several entries; their conditions need not be identical. Identical values can stand only once.

System: SARS-CoV-2 B.1.1.7 (alpha variant)
Type: cell-based
Conditions: 3 µM

SMILES: N#C[C@@]1(c2ccc3c(N)ncnn23)O[C@H](CO)[C@@H](O)[C@H]1O [GS-441524]
- Log vRNA: 4 and 4.2 and 4.3
